Consider eight compounds from patent publication EP4635969A1, “NOVEL GLUCOCORTICOID, METHOD FOR PREPARING SAME, AND USE THEREOF” (Tianjin Pharmaceutical Biotechnology Co., Ltd., priority 2022, dated 2024).

Where two headings read alike, the source gives them in different places. Where only a bound is given, the exact number is not on record here.

Series [1] can be described thus: Determination of stability in plasma in vitro, human plasma (LC-MS/MS). The format is in vitro ADME. The note with it: same experimental conditions (human and mouse plasma). The protocol:
Pharmacological Example 3: Determination of Stability in Plasma in Vitro
The stock solution was diluted with acetonitrile to obtain a working solution at a concentration of 100 µ M. The solution should be freshly prepared prior to use and maintained at room temperature during application.
990 µ L of human and mouse plasma (N = 2) were separately pipetted and pre-incubated at 37 °C for 5 min. Then, 10 µ L of the test compound working solution was added and vortexed thoroughly (the final concentration of the test compound was 1 µ M). Immediately, 50 µ L of the plasma sample was added to 150 µ L of ice-cold precipitation agent containing the internal standard and vortexed thoroughly as the 0-time sample. The remaining plasma sample was continuously incubated at 37 °C, and 50 µ L of the plasma sample was aspirated and added to 150 µ L of ice-cold precipitation agent containing the internal standard at preset sampling time points, followed by thorough vortexing. The collected samples were stored in a freezer at -60 to -90 °C until analysis.
The concentration of the test compound was determined by LC-MS/MS, and its degradation was monitored. (semi-quantitative determination was conducted by comparing the peak area of the analyte to that of the internal standard).

For series [2], the target named is T1, glucocorticoid receptor (GR) (Homo sapiens, UniProt P04150).
T1 sequence (P04150 521-777): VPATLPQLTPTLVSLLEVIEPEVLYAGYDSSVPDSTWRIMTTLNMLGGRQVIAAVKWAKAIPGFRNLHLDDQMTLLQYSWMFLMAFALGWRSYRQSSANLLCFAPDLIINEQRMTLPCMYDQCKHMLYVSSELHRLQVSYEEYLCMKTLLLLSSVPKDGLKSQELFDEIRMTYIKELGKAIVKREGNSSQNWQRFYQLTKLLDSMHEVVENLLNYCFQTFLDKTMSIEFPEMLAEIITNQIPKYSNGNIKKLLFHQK
The experiment in a line: Assay for agonist activity on glucocorticoid receptor (luciferase reporter, HEK293 cells transfected with pBIND-GR plasmid). The format is cell-based. Put shortly:
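Readout is luciferase luminescence, with EC50 derived by nonlinear fitting. Compounds ran at 10 concentrations (4-fold steps, top 10 µM, duplicate wells) on pBIND-GR-transfected HEK293 cells in phenol red-free DMEM plus 5% charcoal-stripped serum; 0.1% DMSO served as blank.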

Series [3] in a line: Stability in animal lung tissue homogenate, skin tissue homogenate and aqueous humor. The format is in vitro ADME.
The target of series [4] is T2, mineralocorticoid receptor (MR) (Homo sapiens, UniProt P08235).
T2 sequence (P08235 726-984): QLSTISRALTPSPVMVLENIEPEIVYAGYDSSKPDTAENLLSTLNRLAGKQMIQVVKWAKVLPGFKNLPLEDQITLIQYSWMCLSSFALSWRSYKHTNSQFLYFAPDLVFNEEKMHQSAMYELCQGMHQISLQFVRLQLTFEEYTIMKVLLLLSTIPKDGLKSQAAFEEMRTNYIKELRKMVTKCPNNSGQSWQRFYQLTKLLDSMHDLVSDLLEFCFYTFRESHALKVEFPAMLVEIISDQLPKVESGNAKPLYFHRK
The experiment in a line: Assay for agonist activity on mineralocorticoid receptor (luciferase reporter, HEK293 cells transfected with pBIND-MR plasmid). The format is cell-based. As to conditions: for Target selectivity MR/GR: ratio of EC50 values; for target selectivity: MR/GR and PR/GR, same experimental conditions. Put shortly:
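HEK293 cells transiently transfected with pBIND-MR or pBIND-PR, seeded in phenol red-free DMEM with 5% charcoal-stripped serum. Compounds tested as 12-point 4-fold dilutions from 50 µM in duplicate, 0.1% DMSO blank. Luciferase luminescence read, EC50 by nonlinear fit.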

Setting [5] is: GR agonist EC50 (nM), HEK293 cells transfected with pBIND-GR, luciferase signal.
The mark [6] stands for this setting: Nuclear receptor enzyme activity (nM) GR, EC50 of agonist activity, HEK293 reporter cells.
Where [7] appears, read: EC50 of agonist activity, HEK293 reporter cells, read-out: Nuclear receptor enzyme activity (nM) GR.
Where [8] appears, read: HEK293 cells transfected with pBIND-GR, luciferase signal, read-out: GR agonist EC50.
Setting [9] is: EC50 of agonist activity, HEK293 reporter cells, top concentration 50 µM, read-out: Nuclear receptor enzyme activity (nM) MR.

On to `C[C@]12C=CC(=O)C=C1CC[C@H]1[C@@H]3C[C@H]4OC(c5ccc(COC6CCOC6=O)cc5)O[C@@]4(C(=O)CO)[C@@]3(C)C[C@H](O)[C@@]12F` (stereo partly drawn) [Compound 16, (6aS,6bR,7S,8aS,8bS,11aR,12aS,12bS)-6b-Fluoro-7-hydroxy-8b-(2-hydroxyacetyl)-6a,8a-dimethyl-10-(4-(((2-oxotetrahydrofuran-3-yl)oxy)methyl)phenyl)-1,2,6a,6b,7,8,8a,8b,11a,12,12a,12b-do decahydro-4H-naphtho[2',1':4,5]indeno[1,2-d][1,3]dioxol-4-one], for which the plasma instability result in series [1] is on record as “exhibited the characteristic of plasma instability”. Besides, the values for the EC50 in series [2] (setting [5]), in series [2] (setting [6]) and in series [4] were 0.43 nM, 0.43 nM and more than 50000 nM, respectively. Besides, the “stability in animal lung tissue homogenate, skin tissue homogenate, and aqueous humor” value (shortened to “stability … and aqueous humor”) in series [3] is recorded as “relatively stable”. Also, in series [4], the “Target selectivity MR/GR” value was > 1.2×10^5.

As for `C[C@]12C=CC(=O)C=C1CC[C@H]1[C@@H]3C[C@H]4OC(c5ccc(CSC6CCOC6=O)cc5)O[C@@]4(C(=O)CO)[C@@]3(C)C[C@H](O)[C@@]12F` (stereo partly drawn) [Compound 17, (6aS,6bR,7S,8aS,8bS,11aR,12aS,12bS)-6b-Fluoro-7-hydroxy-8b-(2-hydroxyacetyl)-6a,8a-dimethyl-10-(4-(((2-oxotetrahydrofuran-3-yl)thio)methyl)phenyl)-1,2,6a,6b,7,8,8a,8b,11a,12,12a,12b-do decahydro-4H-naphtho[2',1':4,5]indeno[1,2-d][1,3]dioxol-4-one], in series [1], the plasma instability result is reported as “exhibited the characteristic of plasma instability”. Besides, the results for the EC50 in series [2] (setting [7]), in series [2] (setting [8]) and in series [4] (setting [9]) were 0.3 nM, 0.3 nM and more than 50000 nM, respectively. In addition, in series [3], the “stability … and aqueous humor” value is given as “relatively stable”. Besides, the “Target selectivity MR/GR” value in series [4] was > 1.7×10^5.

In the case of `C[C@]12C=CC(=O)C=C1CC[C@H]1[C@@H]3C[C@H]4OC(c5ccc(CSC6COC(=O)C6)cc5Cl)O[C@@]4(C(=O)CO)[C@@]3(C)C[C@H](O)[C@@]12F` (stereo partly drawn) [Compound 20, (6aS,6bR,7S,8aS,8bS,11aR,12aS,12bS)-10-(2-Chloro-4-(((5-oxotetrahydrofuran-3-yl)thio)methyl)phenyl)-6b-fluoro-7-hydroxy-8b-(2-hydroxyacetyl)-6a,8a-dimethyl-1,2,6a,6b,7,8,8a,8b,11a,12,12a, 12b-dodecahydro-4H-naphtho[2',1':4,5]indeno[1,2-d][1,3]dioxol-4-one], the plasma instability entry in series [1] is on record as “exhibited the characteristic of plasma instability”. In addition, the EC50 in series [2] (setting [8]) came to 0.33 nM. In addition, in series [3], the “stability … and aqueous humor” value is on record as “relatively stable”. The target selectivity result in series [4] is given as “target selectivity comparable to that of compound 23”.

Regarding `C[C@]12C=CC(=O)C=C1CC[C@H]1[C@@H]3C[C@H]4OC(c5ccc(CNC6COC(=O)C6)cc5)O[C@@]4(C(=O)CO)[C@@]3(C)C[C@H](O)[C@@]12F` (stereo partly drawn) [Compound 21, (6aS,6bR,7S,8aS,8bS,11aR,12aS,12bS)-6b-Fluoro-7-hydroxy-8b-(2-hydroxyacetyl)-6a,8a-dimethyl-10-(4-(((5-oxotetrahydrofuran-3-yl)amino)methyl)phenyl)-1,2,6a,6b,7,8,8a,8b,11a,12,12a,12b-dodecahydro-4H-naphtho[2',1':4,5]indeno[1,2-d][1,3]dioxol-4-one], in series [1], the plasma instability result is recorded as “exhibited the characteristic of plasma instability”. In series [2] (setting [5]), this compound displayed an EC50 of 0.63 nM. In addition, the “stability … and aqueous humor” value in series [3] is “relatively stable”. Also, the target selectivity result in series [4] is “target selectivity comparable to that of compound 23”.

In the case of `C[C@]12C=CC(=O)C=C1CC[C@H]1[C@@H]3C[C@H]4OC(c5ccc(COC6CCOC6=O)cc5)O[C@@]4(C(=O)CO)[C@@]3(C)C[C@H](O)[C@@]12Cl` (stereo partly drawn) [Compound 22, (6aS,6bR,7S,8aS,8bS,11aR,12aS,12bS)-6b-Chloro-7-hydroxy-8b-(2-hydroxyacetyl)-6a,8a-dimethyl-10-(4-(((2-oxotetrahydrofuran-3-yl)oxy)methyl)phenyl)-1,2,6a,6b,7,8,8a,8b,11a,12,12a,12b-do decahydro-4H-naphtho[2',1':4,5]indeno[1,2-d][1,3]dioxol-4-one], the plasma instability entry in series [1] was “exhibited the characteristic of plasma instability”. Moreover, the figures for the EC50 in series [2] (setting [5]), in series [2] (setting [6]) and in series [4] were 0.55 nM, 0.55 nM and more than 50000 nM, respectively. Besides, the “stability … and aqueous humor” value in series [3] was “relatively stable”. Further, the “Target selectivity MR/GR” value in series [4] is on record as > 9.1×10^4.

In the case of `C[C@]12C=CC(=O)C=C1CC[C@H]1[C@@H]3C[C@H]4OC(c5ccc(CSC6CCOC6=O)cc5)O[C@@]4(C(=O)CO)[C@@]3(C)C[C@H](O)[C@@]12Cl` (stereo partly drawn) [Compound 23, (6aS,6bR,7S,8aS,8bS,11aR,12aS,12bS)-6b-Chloro-7-hydroxy-8b-(2-hydroxyacetyl)-6a,8a-dimethyl-10-(4-(((2-oxotetrahydrofuran-3-yl)thio)methyl)phenyl)-1,2,6a,6b,7,8,8a,8b,11a,12,12a,12b-do decahydro-4H-naphtho[2',1':4,5]indeno[1,2-d][1,3]dioxol-4-one], the plasma instability result in series [1] is “exhibited the characteristic of plasma instability”. Further, the figures for the EC50 in series [2] (setting [7]), in series [2] (setting [8]) and in series [4] (setting [9]) were 0.21 nM, 0.21 nM and more than 50000 nM, respectively. The “stability … and aqueous humor” value in series [3] is on record as “relatively stable”. Moreover, in series [4], the “Target selectivity MR/GR” value was > 2.4×10^5.

Take `C[C@]12C=CC(=O)C=C1CC[C@H]1[C@@H]3C[C@H]4OC(c5ccc(CSC6COC(=O)C6)cc5)O[C@@]4(C(=O)CO)[C@@]3(C)C[C@H](O)[C@@]12Cl` (stereo partly drawn) [Compound 26, (6aS,6bR,7S,8aS,8bS,11aR,12aS,12bS)-6b-Chloro-7-hydroxy-8b-(2-hydroxyacetyl)-6a,8a-dimethyl-10-(4-(((5-oxotetrahydrofuran-3-yl)thio)methyl)phenyl)-1,2,6a,6b,7,8,8a,8b,11a,12,12a,12b-do decahydro-4H-naphtho[2',1':4,5]indeno[1,2-d][1,3]dioxol-4-one]: in series [1], the plasma instability entry is recorded as “exhibited the characteristic of plasma instability”. Also, in series [2] (setting [5]), the EC50 came to 0.37 nM. Besides, the “stability … and aqueous humor” value in series [3] was “relatively stable”. The target selectivity entry in series [4] is recorded as “target selectivity comparable to that of compound 23”.

As to `C[C@]12C=CC(=O)C=C1[C@@H](F)C[C@H]1[C@@H]3C[C@H]4OC(c5ccc(CSC6CCOC6=O)cc5)O[C@@]4(C(=O)SCF)[C@@]3(C)C[C@H](O)[C@@]12F` (stereo partly drawn) [Compound 34, S-(Fluoromethyl) (2S,6aS,6bR,7S,8aS,8bS,11aR,12aS,12bS)-2,6b-difluoro-7-hydroxy-6a,8a-dimethyl-4-oxo-10-(4-( ((2-oxotetrahydrofuran-3-yl)thio)methyl)phenyl)-1,2,4,6a,6b,7,8,8a,11a,12,12a,12b-dodecahydro-8bH-naphtho[2',1':4,5]indeno[1,2-d][1,3]dioxole-8b-carbothioate], in series [1], the plasma instability entry was “exhibited the characteristic of plasma instability”. The EC50 is 0.1 nM in series [2] (setting [5]), 0.1 nM in series [2] (setting [6]) and more than 50000 nM in series [4]. Also, the “stability … and aqueous humor” value in series [3] is “relatively stable”. Moreover, the “Target selectivity MR/GR” value in series [4] is reported as > 5.0×10^5.
